How the values were obtained:
[1] = target: RAC-alpha serine/threonine-protein kinase (Homo sapiens) (UniProt P31749); test: Inhibition of recombinant full length human His-tagged AKT1 expressed in baculovirus expression system at 0.1 uM using serine/threonine-06 peptide as substrate incubated for 60 mins by Z'-LYTE assay relative to control
[2] = target: Tyrosine-protein kinase ABL1 (Homo sapiens) (UniProt P00519); test: Inhibition of recombinant full length human His-tagged ABL1 expressed in baculovirus expression system at 0.1 uM using tyrosine-2 peptide as substrate incubated for 60 mins by Z'-LYTE assay relative to control
Tyrosine-protein kinase ABL1 (Homo sapiens), sequence (P00519 whole entry): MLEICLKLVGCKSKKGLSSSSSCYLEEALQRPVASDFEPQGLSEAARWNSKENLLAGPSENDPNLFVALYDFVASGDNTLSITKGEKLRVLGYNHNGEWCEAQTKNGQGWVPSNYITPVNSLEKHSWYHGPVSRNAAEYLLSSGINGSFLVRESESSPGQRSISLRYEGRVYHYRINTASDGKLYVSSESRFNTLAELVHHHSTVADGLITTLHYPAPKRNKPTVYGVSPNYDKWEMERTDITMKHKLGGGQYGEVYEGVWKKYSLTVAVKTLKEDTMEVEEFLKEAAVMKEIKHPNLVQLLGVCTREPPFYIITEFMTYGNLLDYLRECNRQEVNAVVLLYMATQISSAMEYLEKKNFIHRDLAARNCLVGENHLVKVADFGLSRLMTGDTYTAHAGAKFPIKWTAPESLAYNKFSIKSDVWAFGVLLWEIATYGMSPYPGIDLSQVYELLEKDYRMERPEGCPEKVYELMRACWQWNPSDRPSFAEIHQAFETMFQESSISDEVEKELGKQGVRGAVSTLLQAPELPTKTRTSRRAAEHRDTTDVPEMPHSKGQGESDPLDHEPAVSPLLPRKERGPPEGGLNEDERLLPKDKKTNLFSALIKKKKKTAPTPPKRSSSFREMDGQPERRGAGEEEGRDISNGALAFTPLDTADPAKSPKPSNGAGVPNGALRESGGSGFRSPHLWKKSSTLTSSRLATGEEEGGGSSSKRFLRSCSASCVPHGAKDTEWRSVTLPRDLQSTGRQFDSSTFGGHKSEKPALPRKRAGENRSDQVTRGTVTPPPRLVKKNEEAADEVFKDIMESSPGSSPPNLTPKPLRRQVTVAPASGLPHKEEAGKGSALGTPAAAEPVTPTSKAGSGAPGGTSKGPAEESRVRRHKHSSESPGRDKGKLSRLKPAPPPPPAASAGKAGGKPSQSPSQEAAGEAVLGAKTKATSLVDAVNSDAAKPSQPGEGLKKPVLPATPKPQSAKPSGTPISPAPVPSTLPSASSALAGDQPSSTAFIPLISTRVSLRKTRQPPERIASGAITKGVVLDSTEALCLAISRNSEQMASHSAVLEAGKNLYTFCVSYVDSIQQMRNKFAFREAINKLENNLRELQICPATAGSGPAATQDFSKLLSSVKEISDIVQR

[3] = target: Aurora kinase B (Homo sapiens) (UniProt Q96GD4); test: Inhibition of recombinant full length human His-tagged Aurora B expressed in baculovirus expression system at 0.1 uM using serine/threonine-1 peptide as substrate incubated for 60 mins by Z'-LYTE assay relative to control
[4] = target: Bone morphogenetic protein receptor type-1A (Homo sapiens) (UniProt P36894); test: Inhibition of tracer 178 binding to recombinant human GST-tagged BMPR1A catalytic domain (187 to 532 amino acids) expressed insect cell expression system at 0.1 uM measured after 60 mins by Lanthascreen assay relative to control
[5] = target: Tyrosine-protein kinase BTK (Homo sapiens) (UniProt Q06187); test: Inhibition of recombinant full length human His-tagged BTK expressed in baculovirus expression system at 0.1 uM using tyrosine-1 peptide as substrate incubated for 60 mins by Z'-LYTE assay relative to control
Tyrosine-protein kinase BTK (Homo sapiens), sequence (Q06187 whole entry): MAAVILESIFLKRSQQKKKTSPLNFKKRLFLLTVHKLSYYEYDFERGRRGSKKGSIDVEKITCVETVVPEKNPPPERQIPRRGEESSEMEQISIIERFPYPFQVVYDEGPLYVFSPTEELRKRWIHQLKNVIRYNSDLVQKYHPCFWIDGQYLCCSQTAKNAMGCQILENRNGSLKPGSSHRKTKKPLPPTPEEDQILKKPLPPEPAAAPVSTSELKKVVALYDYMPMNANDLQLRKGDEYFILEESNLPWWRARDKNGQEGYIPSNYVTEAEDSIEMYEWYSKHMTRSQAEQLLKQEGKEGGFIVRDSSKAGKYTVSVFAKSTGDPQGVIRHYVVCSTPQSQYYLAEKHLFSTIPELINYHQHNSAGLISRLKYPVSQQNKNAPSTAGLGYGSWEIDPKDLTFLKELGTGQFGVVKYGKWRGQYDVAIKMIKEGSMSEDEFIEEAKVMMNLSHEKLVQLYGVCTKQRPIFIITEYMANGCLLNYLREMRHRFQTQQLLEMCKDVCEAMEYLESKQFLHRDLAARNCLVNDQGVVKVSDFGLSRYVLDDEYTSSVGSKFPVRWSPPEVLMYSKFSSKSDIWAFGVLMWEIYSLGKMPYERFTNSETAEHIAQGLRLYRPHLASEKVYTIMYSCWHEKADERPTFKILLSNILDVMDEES

[6] = target: Cyclin-dependent kinase 13/Cyclin-K (Homo sapiens) (UniProt Q14004+O75909); test: Inhibition of tracer 236 binding to human GST/His-tagged CDK13/Cyclin K at 0.1 uM; type: protein-complex assay
[7] = target: Tyrosine-protein kinase CSK (Homo sapiens) (UniProt P41240); test: Inhibition of recombinant full length human His-tagged CSK expressed in Escherichia coli expression system at 0.1 uM using tyrosine-2 peptide as substrate incubated for 60 mins by Z'-LYTE assay relative to control
[8] = tested on: Epidermal growth factor receptor (Homo sapiens), P00533 [L858R,T790M]; test: Inhibition of recombinant human GST-tagged EGFR T790M/L858R mutant (668 to 1210: T790M/L858R residues)expressed in baculovirus expression system at 0.1 uM using tyrosine-4 peptide as substrate incubated for 60 mins by Z'-LYTE assay relative to control
[9] = target: Vascular endothelial growth factor receptor 3 (Homo sapiens) (UniProt P35916); test: Inhibition of recombinant human GST-tagged FLT4 catalytic domain (800 to 1297 residues) expressed in baculovirus expression system at 0.1 uM using tyrosine-4 peptide as substrate incubated for 60 mins by Z'-LYTE assay relative to control
[10] = target: Megakaryocyte-associated tyrosine-protein kinase (Homo sapiens) (UniProt P42679); test: Inhibition of recombinant full length human His-tagged HYL expressed in Escherichia coli expression system at 0.1 uM using tyrosine-1 peptide as substrate incubated for 60 mins by Z'-LYTE assay relative to control
[11] = target: Insulin receptor-related protein (Homo sapiens) (UniProt P14616); test: Inhibition of recombinant human GST-tagged IRR (944 to 1297 residues) expressed in baculovirus expression system at 0.1 uM using tyrosine-4 peptide as substrate incubated for 60 mins by Z'-LYTE assay relative to control
[12] = target: LIM domain kinase 1 (Homo sapiens) (UniProt P53667); test: Inhibition of tracer 236 binding to recombinant human His-tagged LIMK1 catalytic domain (285 to 638 residues) expressed in baculovirus expression system at 0.1 uM measured after 60 mins by Lanthascreen assay relative to control
[13] = target: Tyrosine-protein kinase Lyn (Homo sapiens) (UniProt P07948); test: Inhibition of recombinant full length human LYN at 0.1 uM using tyrosine-2 peptide as substrate incubated for 60 mins by Z'-LYTE assay relative to control
[14] = target: Dual specificity mitogen-activated protein kinase kinase 1 (Homo sapiens) (UniProt Q02750); test: Inhibition of recombinant full length human His-tagged MEK1 expressed in baculovirus expression system at 0.1 uM using serine/threonine-3 peptide as substrate incubated for 60 mins by Z'-LYTE assay relative to control
[15] = target: Myosin light chain kinase, smooth muscle (Homo sapiens) (UniProt Q15746); test: Inhibition of tracer 236 binding to recombinant full length human GST-tagged MYLK expressed in baculovirus expression system at 0.1 uM measured after 60 mins by Lanthascreen assay relative to control
Myosin light chain kinase, smooth muscle (Homo sapiens), sequence (Q15746 whole entry, the tested form may be a part): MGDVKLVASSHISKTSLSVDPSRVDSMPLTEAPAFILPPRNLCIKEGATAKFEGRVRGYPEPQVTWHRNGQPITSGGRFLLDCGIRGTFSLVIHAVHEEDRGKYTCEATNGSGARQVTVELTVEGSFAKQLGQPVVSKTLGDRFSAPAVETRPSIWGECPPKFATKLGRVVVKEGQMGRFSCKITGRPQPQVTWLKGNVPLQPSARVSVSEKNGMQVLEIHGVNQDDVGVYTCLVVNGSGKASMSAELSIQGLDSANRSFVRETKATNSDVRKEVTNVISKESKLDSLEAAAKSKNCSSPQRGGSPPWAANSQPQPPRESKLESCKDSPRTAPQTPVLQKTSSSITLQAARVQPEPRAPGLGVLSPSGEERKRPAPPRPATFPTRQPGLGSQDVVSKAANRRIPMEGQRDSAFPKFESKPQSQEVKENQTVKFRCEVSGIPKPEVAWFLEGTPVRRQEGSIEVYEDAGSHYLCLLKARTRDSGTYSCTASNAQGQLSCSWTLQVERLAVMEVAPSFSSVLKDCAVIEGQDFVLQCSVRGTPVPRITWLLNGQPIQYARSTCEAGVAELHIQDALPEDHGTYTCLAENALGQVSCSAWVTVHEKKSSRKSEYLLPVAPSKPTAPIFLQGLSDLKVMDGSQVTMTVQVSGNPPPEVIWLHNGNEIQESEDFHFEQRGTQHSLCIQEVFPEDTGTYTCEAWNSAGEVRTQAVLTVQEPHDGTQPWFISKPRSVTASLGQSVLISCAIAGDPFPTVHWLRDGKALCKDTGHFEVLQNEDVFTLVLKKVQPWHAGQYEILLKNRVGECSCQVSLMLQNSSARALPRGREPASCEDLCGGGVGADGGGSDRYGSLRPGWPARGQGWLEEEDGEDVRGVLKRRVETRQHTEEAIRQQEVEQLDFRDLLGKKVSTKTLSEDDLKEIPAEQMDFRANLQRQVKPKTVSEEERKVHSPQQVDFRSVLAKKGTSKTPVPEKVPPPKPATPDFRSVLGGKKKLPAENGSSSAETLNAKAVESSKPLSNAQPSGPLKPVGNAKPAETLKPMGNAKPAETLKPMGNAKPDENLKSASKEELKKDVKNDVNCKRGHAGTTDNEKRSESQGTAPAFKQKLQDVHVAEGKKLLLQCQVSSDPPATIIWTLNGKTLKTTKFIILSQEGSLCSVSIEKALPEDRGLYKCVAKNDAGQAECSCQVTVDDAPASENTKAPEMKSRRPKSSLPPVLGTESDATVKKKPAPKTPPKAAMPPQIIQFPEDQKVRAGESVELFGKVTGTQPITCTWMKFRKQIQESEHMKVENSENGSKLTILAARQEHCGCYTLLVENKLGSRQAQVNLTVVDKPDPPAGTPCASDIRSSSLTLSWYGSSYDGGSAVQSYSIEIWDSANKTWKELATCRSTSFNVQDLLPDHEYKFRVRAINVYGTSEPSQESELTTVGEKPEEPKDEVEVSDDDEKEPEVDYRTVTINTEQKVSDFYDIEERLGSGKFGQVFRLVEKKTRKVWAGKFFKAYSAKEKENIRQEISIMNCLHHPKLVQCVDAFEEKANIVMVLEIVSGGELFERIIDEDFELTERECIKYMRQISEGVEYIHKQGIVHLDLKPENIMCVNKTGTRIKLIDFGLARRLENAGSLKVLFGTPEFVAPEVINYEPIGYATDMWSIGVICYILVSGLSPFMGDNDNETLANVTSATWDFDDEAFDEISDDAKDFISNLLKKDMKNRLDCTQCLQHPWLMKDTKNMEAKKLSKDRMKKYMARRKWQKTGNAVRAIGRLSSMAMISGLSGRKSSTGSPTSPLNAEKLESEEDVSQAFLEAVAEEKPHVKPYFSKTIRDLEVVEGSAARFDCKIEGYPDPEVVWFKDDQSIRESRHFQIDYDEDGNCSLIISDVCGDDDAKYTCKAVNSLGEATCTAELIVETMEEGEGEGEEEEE

[16] = target: Serine/threonine-protein kinase PAK 4 (Homo sapiens) (UniProt O96013); test: Inhibition of recombinant human GST-tagged PAK4 catalytic domain (295 to 591 residues) expressed in baculovirus expression system at 0.1 uM using serine/threonine-20 peptide as substrate incubated for 60 mins by Z'-LYTE assay relative to control
[17] = target: PAS domain-containing serine/threonine-protein kinase (Homo sapiens) (UniProt Q96RG2); test: Inhibition of recombinant human GST-tagged PASK catalytic domain (879 to 1323 residues) expressed in baculovirus expression system at 0.1 uM using serine/threonine-7 peptide as substrate incubated for 60 mins by Z'-LYTE assay relative to control
[18] = target: Phosphorylase b kinase gamma catalytic chain, liver/testis isoform (Homo sapiens) (UniProt P15735); test: Inhibition of recombinant full length human GST-tagged PHKG2 expressed in baculovirus expression system at 0.1 uM using serine/threonine-7 peptide as substrate incubated for 60 mins by Z'-LYTE assay relative to control
[19] = target: Rho-associated protein kinase 2 (Homo sapiens) (UniProt O75116); test: Inhibition of recombinant human GST-tagged ROCK2 catalytic domain (1 to 552 residues) expressed in baculovirus expression system at 0.1 uM using serine/threonine-13 peptide as substrate incubated for 60 mins by Z'-LYTE assay relative to control
Rho-associated protein kinase 2 (Homo sapiens), sequence (O75116 whole entry, looked up, the tested form may be a part): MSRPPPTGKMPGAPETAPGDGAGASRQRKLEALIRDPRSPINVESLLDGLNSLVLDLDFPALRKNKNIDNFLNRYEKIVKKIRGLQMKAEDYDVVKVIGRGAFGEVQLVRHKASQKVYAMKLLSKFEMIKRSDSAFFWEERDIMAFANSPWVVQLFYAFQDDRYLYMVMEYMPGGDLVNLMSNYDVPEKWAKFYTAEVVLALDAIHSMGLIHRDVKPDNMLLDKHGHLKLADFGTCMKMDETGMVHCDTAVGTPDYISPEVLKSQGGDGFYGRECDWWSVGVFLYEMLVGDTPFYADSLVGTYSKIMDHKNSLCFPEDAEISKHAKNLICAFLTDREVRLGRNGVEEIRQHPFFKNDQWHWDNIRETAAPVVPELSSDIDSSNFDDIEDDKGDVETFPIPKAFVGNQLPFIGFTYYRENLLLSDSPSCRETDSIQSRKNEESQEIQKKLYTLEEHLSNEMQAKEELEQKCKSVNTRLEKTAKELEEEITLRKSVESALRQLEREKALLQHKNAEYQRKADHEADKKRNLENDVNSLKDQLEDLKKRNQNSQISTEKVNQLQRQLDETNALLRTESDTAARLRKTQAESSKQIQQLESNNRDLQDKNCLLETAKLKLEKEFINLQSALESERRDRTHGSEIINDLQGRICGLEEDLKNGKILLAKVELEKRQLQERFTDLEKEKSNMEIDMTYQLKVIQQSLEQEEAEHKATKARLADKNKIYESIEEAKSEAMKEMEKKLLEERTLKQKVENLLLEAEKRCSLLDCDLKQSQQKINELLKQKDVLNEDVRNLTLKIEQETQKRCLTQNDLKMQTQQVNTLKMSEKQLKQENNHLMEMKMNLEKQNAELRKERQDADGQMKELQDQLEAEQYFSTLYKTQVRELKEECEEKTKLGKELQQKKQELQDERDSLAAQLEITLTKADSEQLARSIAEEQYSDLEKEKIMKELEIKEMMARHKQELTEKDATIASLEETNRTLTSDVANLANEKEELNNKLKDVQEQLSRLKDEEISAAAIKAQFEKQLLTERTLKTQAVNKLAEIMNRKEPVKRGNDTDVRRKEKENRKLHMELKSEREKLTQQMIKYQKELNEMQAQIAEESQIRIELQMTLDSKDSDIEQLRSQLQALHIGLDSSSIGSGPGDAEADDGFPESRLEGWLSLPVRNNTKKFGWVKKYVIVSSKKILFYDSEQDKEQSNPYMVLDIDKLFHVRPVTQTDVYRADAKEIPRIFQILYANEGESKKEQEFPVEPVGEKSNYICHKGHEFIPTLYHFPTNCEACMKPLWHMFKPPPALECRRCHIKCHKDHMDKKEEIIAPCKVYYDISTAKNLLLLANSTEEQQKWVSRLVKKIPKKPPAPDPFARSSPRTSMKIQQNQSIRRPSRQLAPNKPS

[20] = target: Sphingosine kinase 1 (Homo sapiens) (UniProt Q9NYA1); test: Inhibition of recombinant full length human GST-tagged SPHK1 expressed in baculovirus expression system at 0.1 uM using Sphingosine Lipid as substrate incubated for 60 mins by Adapta assay relative to control
[21] = target: SRSF protein kinase 1 (Homo sapiens) (UniProt Q96SB4); test: Inhibition of recombinant full length human His-tagged SRPK1 expressed in baculovirus expression system at 0.1 uM using serine/threonine-18 peptide as substrate incubated for 60 mins by Z'-LYTE assay relative to control
[22] = target: Activated CDC42 kinase 1 (Homo sapiens) (UniProt Q07912); test: Inhibition of tracer 236 binding to recombinant human GST-tagged TNK2 catalytic domain (110 to 476 residues) expressed in baculovirus expression system at 0.1 uM measured after 60 mins by Lanthascreen assay
[23] = target: Serine/threonine-protein kinase 25 (Homo sapiens) (UniProt O00506); test: Inhibition of recombinant full length human GST-tagged YSK1 expressed in baculovirus expression system at 0.1 uM using serine/threonine-7 peptide as substrate incubated for 60 mins by Z'-LYTE assay relative to control

| Compound | inhibition [1] [%] | inhibition [2] [%] | inhibition [3] [%] | inhibition [4] [%] | inhibition [5] [%] | inhibition [6] [%] | inhibition [7] [%] | inhibition [8] [%] | inhibition [9] [%] | inhibition [10] [%] | inhibition [11] [%] | inhibition [12] [%] | inhibition [13] [%] | inhibition [14] [%] | inhibition [15] [%] | inhibition [16] [%] | inhibition [17] [%] | inhibition [18] [%] | inhibition [19] [%] | inhibition [20] [%] | also measured |
| --- | --- | --- | --- | --- | --- | --- | --- | --- | --- | --- | --- | --- | --- | --- | --- | --- | --- | --- | --- | --- | --- |
| CCN1CC2(C1)CN(c1ccc(Nc3ncc(F)c(-c4cnn5c4[C@H](C)CCCC5)n3)nc1)C2 | 2 | 3.5 | 7.5 | 0.5 | 4 | 50 | 3 | 32.5 | 19 | -0.5 | 1 | -2 | 7 | 20.5 | 5.5 | 13.5 | 14.5 | 23 | 7 | 1.5 | inhibition [21]: 4.5%; inhibition [22]: 5%; inhibition [23]: 10.5% |
| CCN1CCN(Cc2ccc(Nc3ncc(F)c(-c4cc(F)c5nc(C)n(C(C)C)c5c4)n3)nc2)CC1 [ABEMACICLIB] | 6.5 | 1.5 | 14.5 | -0.3 | 3 | 38 | 4 | 46 | 4 | 0 | 6 | 3.7 | 6 | 4.7 | 14.7 | 1 | 73 | 7 | 18.5 | 14.7 | inhibition [21]: 6%; inhibition [22]: 2.4%; inhibition [23]: 15% |

From ChEMBL document CHEMBL4385643, “Design of a brain-penetrant CDK4/6 inhibitor for glioblastoma” (Bioorg Med Chem Lett, 2019)
